According to US20090220469A1, “PEPTIDES AGAINST AUTOANTIBODIES ASSOCIATED WITH GLAUCOMA AND USE OF THESE PEPTIDES” (MAX-DELBRUECK-CENTRUM FUER MOLEKULARE MEDIZIN, priority 2006, published 2009):

Tested on: agonistic autoantibodies against the β2 adrenergic receptor (immunoglobulin fraction of POAG patients)
Test: Neutralization of agonistic autoantibodies by synthetic peptides, beating rate of spontaneously beating neonatal rat cardiomyocytes
Assay type: cell-based
Details: for recognition of epitopes by the antibodies: 5 overlapping peptides of loop II of the β2 adrenergic receptor, FIG. 6; for effect on the antibody-induced increase in the spontaneous beating rate: immunoglobulins of 5 patients with POAG preincubated with short, overlapping peptides of the second extracellular loop of the β2 receptor, neonatal rat cardiomyocytes; for blocking of the stimulating effect of the antibodies by extracellular loop peptides: immunoglobulins from 6 POAG patients preexposed to peptides of the first, second and third extracellular β2 receptor loops, 0.5 μg peptide in 50 μl
Description: Preparation of the immunoglobulin fraction. The immunoglobulin fraction was isolated from 1- to 2-ml serum samples by ammonium sulfate precipitation at a saturation of 40%. The precipitates were washed and dissolved in dialysis buffer (154 mmol/l NaCl, 10 mmol/l sodium phosphate; pH 7.2). The procedure of precipitating, washing, and dissolving was repeated twice.
Finally, the immunoglobulins were taken up in 1 ml PBS (pH 7.2) and dialyzed at 4° C. for 30 hours against 1 l of dialysis buffer. The buffer was changed five times during dialysis. For detection of autoantibodies, the immunoglobulin fractions were added at a dilution of 1:20 or 1:40 to the flasks.
After the dialysis, the IgG fractions feature a concentration of 10-15 mg/ml, a maximum of 10 μg/ml of which are specific receptor antibodies. 50 μl of this IgG solution are pre-incubated with the peptides with the following concentration of peptides: 5 μl of a buffered solution of 100 μg/ml per 50 μl IgG solution. This mixture is pre-incubated at room temperature for 30 minutes and subsequently filled into the cell culture vials, after the former nutrient solution has been removed by pipet. The amount of the medium is 2 ml. The final concentration therefore is of […] for the IgG and 0.5 μg for the peptides. If the molecular weight of the peptide (10 mer) is set with 1 KD and that of the IgG is set with 150 KD, there is an […].
For the neutralization experiments, synthetic peptides corresponding to the sequence of the three extracellular loops of the human β2 adrenegic receptor was added in excess (0.5 μg in 50 μl) to 50 μl of the immunoglobulin fraction. The mixtures were shaken and incubated at room temperature for 1 h. The 100-μl samples were then added to neonatal rat heart muscle cells cultured in 2 ml medium to a final dilution of 1:40. The beating rate was counted for 15 s, 60 min after the addition of the peptide/immunoglobulin mixture.
For identifying the autoantibody neutralizing epitopes synthetic overlapping peptides corresponding to the sequence of the second extracellular loop of the human β2 adrenoceptor was added to the immunoglobulins. After 1 h incubation at room temperature the samples were used as described above.

Row | Substance | recognition of epitopes by the antibodies | effect on the antibody-induced increase in the spontaneous beating rate | blocking of the stimulating effect of the antibodies by extracellular loop peptides | blocking of the stimulating effect of the antibodies by extracellular loop peptides (listed as peptides from the second extracellular loop)
1 | AINCYAN [Ala-Ile-Asn-Cys-Tyr-Ala-Asn] | Antibodies recognize the epitopes | abolished the increase in the spontaneous beating rate in all 5 patients tested | – | –
2 | ANETCCD [Ala-Asn-Glu-Thr-Cys-Cys-Asp] | Antibodies recognize the epitopes | abolished the increase in the spontaneous beating rate in all 5 patients tested | – | –
3 | loop II peptide: synthetic peptide corresponding to the sequence of the second extracellular loop of the human β2 adrenergic receptor (HWYRATHQEAINCYANETCCDFFTNQ) | – | – | blocks the antibody activity to stimulate the rat cardiomyocytes | blocked the effect
